Assay results from patent publication US12495798B2, “Nicotinamide compound and herbicidal composition comprising compound” (KOREA RESEARCH INSTITUTE OF CHEMICAL TECHNOLOGY, priority 2019, dated 2025).

Assays:
Assay type in all cases: in vivo
quack grass = experiment: Herbicidal activity test against upland field weeds (soil treatment test); set-up: key to Soil treatment herbicidal activity, quack grass: 0 (no control); 100 (complete control); details: 50 g ai/ha, scale 0 (no control) to 100 (complete control)
Method in brief: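 Pre-emergence soil surface spray, day after sowing, into sandy loam pots with fertilizer; compounds at 50 or 75 g a.i./ha in 50% acetone, 0.1% Tween-20. Greenhouse at 30±5 °C, 14/10 h light/dark; visual control rated 0–100 against untreated after 14 days (21 if needed).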

wheat [1] = experiment: Phytotoxicity test for upland field crops (foliar treatment test); set-up: key: 0 (no harm); 9 (complete withered)
Method in brief: (§1)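 Phytotoxicity was rated on a 0 (no harm) to 9 (complete withered) scale relative to untreated plants, 7 and 14 days after spraying. Crops had been grown in fertilized horticultural soil under greenhouse conditions before foliar application at 19˜300 g a.i./ha.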

corn [2] = experiment: as above; set-up: key: 0 (no harm); 9 (complete withered)
Method in brief: as §1

cotton = experiment: Phytotoxicity test for field crops (soil treatment test); set-up: key: 0 (no harm); 9 (complete withered)
Method in brief: (§2)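 Visual phytotoxicity grading (0 no harm to 9 complete withering, relative to untreated control) 10 and 20 days after a pre-emergence soil spray applied one day post-sowing. Rates 19˜300 g a.i./ha in 33% acetone/0.1% Tween-20; sterilized soil pH 6.1, fertilized; greenhouse 30±5° C, 14/10 h photoperiod.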

rice = experiment: as above; set-up: key: 0 (no harm); 9 (complete withered)
Method in brief: as §2

wheat [3] = experiment: as above; set-up: key: 0 (no harm); 9 (complete withered)
Method in brief: as §2

corn [4] = experiment: as above; set-up: key: 0 (no harm); 9 (complete withered)
Method in brief: as §2

soybean = experiment: as above; set-up: key: 0 (no harm); 9 (complete withered)
Method in brief: as §2

[5] = 50 g ai/ha, Wheat (7 days after treatment)
[6] = 50 g ai/ha, Wheat (14 days after treatment)
[7] = 100 g ai/ha, Wheat (7 days after treatment)
[8] = 100 g ai/ha, Wheat (14 days after treatment)
[9] = 50 g ai/ha, Corn (7 days after treatment)
[10] = 50 g ai/ha, Corn (14 days after treatment)
[11] = 100 g ai/ha, Corn (7 days after treatment)
[12] = 100 g ai/ha, Corn (14 days after treatment)
[13] = 50 g ai/ha, Cotton (10 days after treatment)
[14] = 50 g ai/ha, Cotton (20 days after treatment)
[15] = 100 g ai/ha, Cotton (10 days after treatment)
[16] = 100 g ai/ha, Cotton (20 days after treatment)
[17] = 50 g ai/ha, Rice (10 days after treatment)
[18] = 50 g ai/ha, Rice (20 days after treatment)
[19] = 100 g ai/ha, Rice (10 days after treatment)
[20] = 100 g ai/ha, Rice (20 days after treatment)
[21] = 50 g ai/ha, Wheat (10 days after treatment)
[22] = 50 g ai/ha, Wheat (20 days after treatment)
[23] = 100 g ai/ha, Wheat (10 days after treatment)
[24] = 100 g ai/ha, Wheat (20 days after treatment)
[25] = 50 g ai/ha, Corn (10 days after treatment)
[26] = 50 g ai/ha, Corn (20 days after treatment)
[27] = 100 g ai/ha, Corn (10 days after treatment)
[28] = 100 g ai/ha, Corn (20 days after treatment)
[29] = 50 g ai/ha, Soybean (20 days after treatment)
[30] = 100 g ai/ha, Soybean (20 days after treatment)

## COc1nc(COCc2nc(C(F)(F)F)ccc2C(=O)Nc2nnnn2C)nn1C [Compound No. 2-129, 2-(((5-methoxy-1-methyl-1H-1,2,4-triazol-3-yl)methoxy)methyl)-N-(1-methyl-1H-tetrazol-5-yl)-6-(trifluoromethyl)nicotinamide]
Quack grass
  Soil treatment herbicidal activity, quack grass: 0
Wheat [1]; [5]
  Foliar treatment phytotoxicity, Wheat: 1
Wheat [1]; [6]
  Foliar treatment phytotoxicity, Wheat: 1
Wheat [1]; [7]
  Foliar treatment phytotoxicity, Wheat: 2
Wheat [1]; [8]
  Foliar treatment phytotoxicity, Wheat: 2
Corn [2]; [9]
  Foliar treatment phytotoxicity, Corn: 0
Corn [2]; [10]
  Foliar treatment phytotoxicity, Corn: 0
Corn [2]; [11]
  Foliar treatment phytotoxicity, Corn: 0
Corn [2]; [12]
  Foliar treatment phytotoxicity, Corn: 0
cotton; [13]
  Soil treatment phytotoxicity, Cotton: 0
cotton; [14]
  Soil treatment phytotoxicity, Cotton: 0
cotton; [15]
  Soil treatment phytotoxicity, Cotton: 1
cotton; [16]
  Soil treatment phytotoxicity, Cotton: 5
rice; [17]
  Soil treatment phytotoxicity, Rice: 5
rice; [18]
  Soil treatment phytotoxicity, Rice: 6
rice; [19]
  Soil treatment phytotoxicity, Rice: 5
rice; [20]
  Soil treatment phytotoxicity, Rice: 7
Wheat [3]; [21]
  Soil treatment phytotoxicity, Wheat: 0
Wheat [3]; [22]
  Soil treatment phytotoxicity, Wheat: 0
Wheat [3]; [23]
  Soil treatment phytotoxicity, Wheat: 0
Wheat [3]; [24]
  Soil treatment phytotoxicity, Wheat: 0
Corn [4]; [25]
  Soil treatment phytotoxicity, Corn: 0
Corn [4]; [26]
  Soil treatment phytotoxicity, Corn: 0
Corn [4]; [27]
  Soil treatment phytotoxicity, Corn: 0
Corn [4]; [28]
  Soil treatment phytotoxicity, Corn: 0
soybean; 50 g ai/ha, Soybean (10 days after treatment)
  Soil treatment phytotoxicity, Soybean: 0
soybean; [29]
  Soil treatment phytotoxicity, Soybean: 0

## Cn1nnc(CSCc2nc(C(F)F)ccc2C(=O)Nc2nnnn2C)n1 [Compound No. 2-108, 6-(difluoromethyl)-N-(1-methyl-1H-tetrazol-5-yl)-2-((((2-methyl-2H-tetrazol-5-yl)methyl)thio)methyl)nicotinamide]
Quack grass
  Soil treatment herbicidal activity, quack grass: 0
Wheat [1]; [5]
  Foliar treatment phytotoxicity, Wheat: 3
Wheat [1]; [6]
  Foliar treatment phytotoxicity, Wheat: 3
Wheat [1]; [7]
  Foliar treatment phytotoxicity, Wheat: 4
Wheat [1]; [8]
  Foliar treatment phytotoxicity, Wheat: 4
Corn [2]; [9]
  Foliar treatment phytotoxicity, Corn: 0
Corn [2]; [10]
  Foliar treatment phytotoxicity, Corn: 0
Corn [2]; [11]
  Foliar treatment phytotoxicity, Corn: 0
Corn [2]; [12]
  Foliar treatment phytotoxicity, Corn: 0
cotton; [13]
  Soil treatment phytotoxicity, Cotton: 0
cotton; [14]
  Soil treatment phytotoxicity, Cotton: 1
cotton; [15]
  Soil treatment phytotoxicity, Cotton: 0
cotton; [16]
  Soil treatment phytotoxicity, Cotton: 3
rice; [17]
  Soil treatment phytotoxicity, Rice: 0
rice; [18]
  Soil treatment phytotoxicity, Rice: 0
rice; [19]
  Soil treatment phytotoxicity, Rice: 0
rice; [20]
  Soil treatment phytotoxicity, Rice: 0
Wheat [3]; [21]
  Soil treatment phytotoxicity, Wheat: 0
Wheat [3]; [22]
  Soil treatment phytotoxicity, Wheat: 0
Wheat [3]; [23]
  Soil treatment phytotoxicity, Wheat: 0
Wheat [3]; [24]
  Soil treatment phytotoxicity, Wheat: 0
Corn [4]; [25]
  Soil treatment phytotoxicity, Corn: 0
Corn [4]; [26]
  Soil treatment phytotoxicity, Corn: 0
Corn [4]; [27]
  Soil treatment phytotoxicity, Corn: 0
Corn [4]; [28]
  Soil treatment phytotoxicity, Corn: 0
soybean; [29]
  Soil treatment phytotoxicity, Soybean: 0
soybean; [30]
  Soil treatment phytotoxicity, Soybean: 3

## CCOC(=O)OC(C)n1nnn(C)c1=NC(=O)c1ccc(C(F)(F)F)nc1CSCc1nnn(C)n1 (stereo not drawn) [Compound No. 4-10, ethyl (1-(4-methyl-5-((2-((((2-methyl-2H-tetrazol-5-yl)methyl)thio)methyl)-6-(trifluoromethyl)nicotinoyl)imino)-4,5-dihydro-1H-tetrazol-1-yl)ethyl)carbonate]
Quack grass
  Soil treatment herbicidal activity, quack grass: 0
Wheat [1]; [5]
  Foliar treatment phytotoxicity, Wheat: 0
Wheat [1]; [6]
  Foliar treatment phytotoxicity, Wheat: 0
Wheat [1]; [7]
  Foliar treatment phytotoxicity, Wheat: 0
Wheat [1]; [8]
  Foliar treatment phytotoxicity, Wheat: 0
Corn [2]; [9]
  Foliar treatment phytotoxicity, Corn: 2
Corn [2]; [10]
  Foliar treatment phytotoxicity, Corn: 1
Corn [2]; [11]
  Foliar treatment phytotoxicity, Corn: 3
Corn [2]; [12]
  Foliar treatment phytotoxicity, Corn: 1
cotton; [13]
  Soil treatment phytotoxicity, Cotton: 0
cotton; [14]
  Soil treatment phytotoxicity, Cotton: 1
cotton; [15]
  Soil treatment phytotoxicity, Cotton: 0
cotton; [16]
  Soil treatment phytotoxicity, Cotton: 2
rice; [17]
  Soil treatment phytotoxicity, Rice: 0
rice; [18]
  Soil treatment phytotoxicity, Rice: 0
rice; [19]
  Soil treatment phytotoxicity, Rice: 0
rice; [20]
  Soil treatment phytotoxicity, Rice: 0
Wheat [3]; [21]
  Soil treatment phytotoxicity, Wheat: 0
Wheat [3]; [22]
  Soil treatment phytotoxicity, Wheat: 0
Wheat [3]; [23]
  Soil treatment phytotoxicity, Wheat: 0
Wheat [3]; [24]
  Soil treatment phytotoxicity, Wheat: 0
Corn [4]; [25]
  Soil treatment phytotoxicity, Corn: 0
Corn [4]; [26]
  Soil treatment phytotoxicity, Corn: 0
Corn [4]; [27]
  Soil treatment phytotoxicity, Corn: 0
Corn [4]; [28]
  Soil treatment phytotoxicity, Corn: 0
soybean; [29]
  Soil treatment phytotoxicity, Soybean: 1
soybean; [30]
  Soil treatment phytotoxicity, Soybean: 3
